Read-outs that look alike come from different tables or passages of the source.
Key:
[1] = Assay C: permeability in CACO-2 cells; type: in vitro ADME; conditions: human, Caco-2, pH 7.2
In short: (§1)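 Caco-2 monolayers were grown 10–25 days on porous filter inserts. Compound was applied to the apical or basolateral donor side for A-B or B-A transport (3 filters), and the receiver was sampled for up to 2 h. Quantitation was by HPLC-MS/MS or scintillation; efflux ratio = B-A/A-B permeability.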

CACO-2 cells = assay: Assay C: permeability in CACO-2 cells; type: in vitro ADME; conditions: pairs with and without 4-fluoropiperidyl, CACO2 cells
In short: as §1

murine hepatocytes = assay: Assay E: stability in murine hepatocytes; type: in vitro ADME, mouse; conditions: Table 13, prior art compounds, 1 μM, 5% species serum
In short: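 Cryopreserved mouse hepatocytes, typically 1 Mio cells/mL in medium with 5% species serum, were dosed at 1 μM compound (0.05% DMSO) at 37 °C and sampled over 0–6 h. Parent decline was measured by HPLC-MS/MS and CLint calculated from dose/AUC, then scaled by well-stirred liver model.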

[2] = test system: SIRPα signalling induced by A549 cells; assay: Assay B: SIRPα signalling assay using A549 cells; type: cell-based; conditions: Homo sapiens, Table 5, prior art compounds, read-out: Inhibition of SIRPα signalling induced by A549 cells: IC50
In short: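 Raji or A549 cells (5000/well) were each incubated with serially diluted compound for 48 h at 37 °C. Jurkat PathHunter SIRPαV1 reporter cells (15000/well) were then added for 5 h. Beta-galactosidase luminescence gave IC50 via a 4-parameter sigmoidal fit.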

isolated QPCTL [3] = biological target: T1, isolated QPCTL (Homo sapiens, UniProt Q9NXS2); conditions: as disclosed in WO 2024/020517; read-out: Inhibitory activity on isolated QPCTL, IC50; cited from earlier work
T1 sequence (Q9NXS2 whole entry): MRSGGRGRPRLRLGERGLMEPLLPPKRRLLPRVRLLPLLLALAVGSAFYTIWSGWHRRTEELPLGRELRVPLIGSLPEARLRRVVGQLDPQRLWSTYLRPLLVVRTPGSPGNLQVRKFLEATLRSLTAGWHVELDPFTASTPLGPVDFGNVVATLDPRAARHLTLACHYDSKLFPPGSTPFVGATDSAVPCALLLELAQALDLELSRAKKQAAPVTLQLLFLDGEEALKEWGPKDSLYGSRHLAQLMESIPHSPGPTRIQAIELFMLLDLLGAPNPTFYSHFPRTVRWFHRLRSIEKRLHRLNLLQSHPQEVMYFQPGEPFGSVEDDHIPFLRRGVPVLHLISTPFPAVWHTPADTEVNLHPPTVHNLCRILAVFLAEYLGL

isolated QPCTL [4] = biological target: T1, isolated QPCTL; conditions: as disclosed in WO 2023/205173; read-out: inhibitory activity on isolated QPCTL, IC50; cited from earlier work
[5] = test system: SIRPα signalling induced by Raji cells; assay: Assay B: SIRPα signalling assay using Raji cells; type: cell-based; conditions: Homo sapiens, Table 5, prior art compounds, read-out: Inhibition of SIRPα signalling induced by Raji cells: IC50
In short: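 SIRPα signalling induced by Raji cells in a PathHunter reporter line, read as β-galactosidase complementation luminescence. Detection reagent 1 added for 15 min, then reagent 2 for 60 min in the dark, both at room temperature.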

CYP3A4 mRNA = assay: Assay D: CYP induction screening assay in primary human hepatocytes; type: in vitro ADME; conditions: Table 10, prior art compounds, 48 h
In short: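 Single-donor cryopreserved human hepatocytes on collagen with Matrigel overlay were exposed to test compound at […] (0.1% DMSO) for 48 h, medium renewed at 24 h. CYP3A4 mRNA quantified by QuantiGene Plex/Luminex, normalised to geometric mean of RPL32, EIF4E2, GUSB and expressed relative to solvent control.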

QPCT = biological target: T2, QPCT (Homo sapiens, UniProt Q16769); assay: Assay A: biochemical QPCT activity assay (MALDI-TOF MS, CD47 peptide substrate); conditions: Table 3, prior art compounds, read-out: Inhibition of QPCT: IC50
T2 construct: purchased Origine (OriGene) TP700028
T2 sequence (Q16769 29-361): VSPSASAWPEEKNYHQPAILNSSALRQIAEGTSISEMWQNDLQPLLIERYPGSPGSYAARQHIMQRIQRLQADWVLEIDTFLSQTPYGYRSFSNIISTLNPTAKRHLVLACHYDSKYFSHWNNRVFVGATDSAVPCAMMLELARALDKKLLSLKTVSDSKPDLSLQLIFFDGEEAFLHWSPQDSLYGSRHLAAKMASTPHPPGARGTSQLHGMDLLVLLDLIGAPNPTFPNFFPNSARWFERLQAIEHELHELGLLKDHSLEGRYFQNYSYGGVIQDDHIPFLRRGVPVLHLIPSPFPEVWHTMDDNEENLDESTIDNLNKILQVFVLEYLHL
In short: (§2)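 Enzyme and compound pre-incubated 10 min at 24° C in 20 mM Tris pH 7.5 with TCEP, BSA, Tween20, then 40 min with CD47 peptide (10 μM for QPCTL, 20 μM for QPCT). Pyroglutamate product/internal standard ratio by MALDI-TOF MS, normalized to controls; four-parameter logistic fit.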

QPCTL = biological target: T3, QPCTL (Homo sapiens, UniProt Q9NXS2); assay: Assay A: biochemical QPCTL activity assay (MALDI-TOF MS, CD47 peptide substrate); conditions: Table 3, prior art compounds, read-out: Inhibition of QPCTL: IC50
T3 construct: made in house
T3 sequence (Q9NXS2 whole entry, species assumed): as the sequence (Q9NXS2 whole entry) above
In short: as §2

[6] = pairs with and without 4-fluoropiperidyl, CACO2 cells, read-out: Efflux ratio (BA/AB)

Compound	efflux ratio [1, 6]	CACO2 Perm. (CACO-2 cells)	Mouse Hepatocyte Stability QH (murine hepatocytes) [%]	IC50 [2] [nM]	IC50 [5] [nM]	n-fold induction of CYP3A4 at 10 μM (CYP3A4 mRNA) [n-fold]	Papp A→B [1] [×10⁻⁶ cm/s]	efflux ratio ([1]; read-out: Efflux Ratio)	IC50 (QPCT) [nM]	IC50 (QPCTL) [nM]	IC50 (isolated QPCTL [3]) [nM]	IC50 (isolated QPCTL [4]) [nM]
Cn1cnnc1C1CCN(c2c(C#N)cccc2-c2ccc(F)nc2)CC1 [(1)/QP5020, reference compound]		28.0 10^−6 cm/sec	83	8								
Cn1c(N)nnc1C1CCN(c2c(C#N)cccc2-c2ccc(F)nc2)CC1 [Compound 14, reference compound]			33	4	4	1.9						< 1000
COc1ccc(-c2ccnnc2)c(N2CCC(c3nncn3C)CC2)c1C#N [Compound 26, reference compound]			19	208	452	1.1	< 0.02	> 135	2	1	< 100	
COc1ccc(-c2cnc3nccn3c2)c(N2CCC(c3nncn3C)CC2)c1C#N [Compound 94, reference compound]			30	1300	2040	<1	< 1.4	> 0.8	3	1	< 100	
Cn1cnnc1C1(F)CCN(c2c(C#N)cccc2-c2ccnnc2)CC1 [Example 52 in EP 22216126.7]		15.0 10^−6 cm/sec										
Cn1cnnc1C1(F)CCN(c2c(C#N)cccc2-c2ccc(F)nc2)CC1 [Example 56 in EP 23161417.3]		50.0 10^−6 cm/sec										

Second part, led by results:

efflux ratio [1, 6]	CACO2 Perm. (CACO-2 cells)	Mouse Hepatocyte Stability QH (murine hepatocytes) [%]	IC50 [2] [nM]	IC50 [5] [nM]	n-fold induction of CYP3A4 at 10 μM (CYP3A4 mRNA) [n-fold]	Papp A→B [1] [×10⁻⁶ cm/s]	efflux ratio ([1]; read-out: Efflux Ratio)	IC50 (QPCT) [nM]	IC50 (QPCTL) [nM]	Compound	IC50 (isolated QPCTL [3]) [nM]	IC50 (isolated QPCTL [4]) [nM]
5.7	17.0 10^−6 cm/sec									Cn1cnnc1C1CCN(c2c(C#N)cc(F)cc2-c2cnc3nn(C(C)(C)C)c(C(F)(F)F)c3c2)CC1		
0.8	51.0 10^−6 cm/sec									Cn1cnnc1C1(F)CCN(c2c(C#N)cc(F)cc2-c2cnc3nn(C(C)(C)C)c(C(F)(F)F)c3c2)CC1		
	0.3 10^−6 cm/sec		70							Cn1cnnc1C1CCN(c2c(C#N)cccc2-c2ccnnc2)CC1 [Compound 11]	< 100	
		61	396	778	1.5	< 0.6	> 21.7	24	10	Cn1cc2c(-c3cccc(C#N)c3N3CCC(c4nncn4C)CC3)cncc2n1 [Compound 16, reference compound]	< 100	
		26	356	1380	0.8	< 0.04	> 40	5	1	Cn1cnnc1C1CCN(c2c(C#N)cccc2-c2cnc3nccn3c2)CC1 [Compound 93, reference compound]	< 100	
		<12	4240	> 10000	<1	< 0.78	> 5	164	149	Cn1cnnc1C1CCN(c2c(C#N)cccc2-c2cnc3[nH]nc(O)c3c2)CC1 [Compound 113, reference compound]	< 100	
	0.2 10^−6 cm/sec									Cn1cnnc1C1CCN(c2c(-c3cnc4nn(C(C)(C)C)cc4c3)ccc(C(F)(F)F)c2C#N)CC1 [Example 32 in EP 23161417.3]		
	0.5 10^−6 cm/sec									Cn1cnnc1C1CCN(c2c(C#N)cccc2-c2cnc3nn(C(C)(C)C)cc3c2)CC1 [Example 50 in EP 22216126.7]		
	4.9 10^−6 cm/sec									Cn1cnnc1C1(F)CCN(c2c(C#N)cccc2-c2cnc3nn(C(C)(C)C)cc3c2)CC1 [Example 62 in EP 22216126.7]		

From patent US20250250251A1, “PIPERIDINYLPYRIDINYLCARBONITRILE DERIVATIVES AS INHIBITORS OF GLUTAMINYL-PEPTIDE CYCLOTRANSFERASE AND GLUTAMINYL-PEPTIDE CYCLOTRANSFERASE LIKE PROTEIN” (Boehringer Ingelheim International GmbH, priority 2024, published 2025)
